Experimental data taken from patent US7772241B2, “Variolin derivatives and their use as antitumor agents” (Pharma Mar S.A., priority 2001, dated 2010).

Tests used:
IGROV-1 = assay: Inhibition of cells growth by colorimetric (SRB) assay, IGROV-1
Outline: (§1)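 Human tumour cells seeded at 5×10^3/well in RPMI 1640 10% FBS, attached 18 h, then exposed 48 h to samples at 10 to 10^−8 μg/ml in DMSO/EtOH/PBS (0.5:0.5:99). Growth read by SRB staining after TCA fixation, OD 490 nm, triplicate wells; GI, TGI and LC derived.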

SK-MEL-28 = assay: Inhibition of cells growth by colorimetric (SRB) assay, SK-MEL-28
Outline: as §1

SK-BR-3 = assay: Inhibition of cells growth by colorimetric (SRB) assay, SK-BR-3
Source text: The finality of these assays is to interrupt the growth of a “in vitro” tumor cell culture by means a continued exhibition of the cells to the sample to be testing.
This form of the assay employs 96 well cell culture microplates of 9 mm diameter (Faircloth, 1988; Mosmann, 1983). Most of the cell lines are obtained from American Type Culture Collection (ATCC) derived from different human cancer types.
Cells are maintained in RPMI 1640 10% FBS, supplemented with 0.1 g/l penicillin and 0.1 g/l streptomycin sulphate and then incubated at 37° C., 5% CO2 and 98% humidity. For the experiments, cells were harvested from subconfluent cultures using trypsin and resuspended in fresh medium before plating.
Cells are seeded in 96 well microtiter plates, at 5×10^3 cells per well in aliquots of 195 μl medium, and they are allowed to attach to the plate surface by growing in drug free medium for 18 hours. Afterward, samples are added in aliquots of 5 μl in a ranging from 10 to 10^−8 μg/ml, dissolved in DMSO/EtOH/PBS (0.5:0.5:99). After 48 hours exposure, the antitumor effect are measured by the SRB methodology: cells are fixed by adding 50 μl of cold 50% (wt/vol) trichloroacetic acid (TCA) and incubating for 60 minutes at 4° C. Plates are washed with deionized water and dried. One hundred μl of SRB solution (0.4% wt/vol in 1% acetic acid) is added to each microtiter well and incubated for 10 minutes at room temperature. Unbound SRB is removed by washing with 1% acetic acid. Plates are air dried and bound stain is solubilized with Tris buffer. Optical densities are read on a automated spectrophotometric plate reader at a single wavelength of 490 nm.
The values for mean +/−SD of data from triplicate wells are calculated. Some parameters for cellular responses can be calculated: GI=growth inhibition, TGI=total growth inhibition (cytostatic effect) and LC=cell killing (cytotoxic effect).

PANC-1 = assay: Inhibition of cells growth by colorimetric (SRB) assay, PANC-1
Outline: as §1

LoVo = assay: Inhibition of cells growth by colorimetric (SRB) assay, LoVo
Outline: as §1

A-549 = assay: Inhibition of cells growth by colorimetric (SRB) assay, A-549
Outline: as §1

K-562 = assay: Inhibition of cells growth by colorimetric (SRB) assay, K-562
Outline: as §1

DU-145 = assay: Inhibition of cells growth by colorimetric (SRB) assay, DU-145
Outline: as §1

LNCaP = assay: Inhibition of cells growth by colorimetric (SRB) assay, LNCaP
Outline: as §1

LoVo-Dox = assay: Inhibition of cells growth by colorimetric (SRB) assay, LoVo-Dox
Outline: as §1

SK-OV-3 = assay: Inhibition of cells growth by colorimetric (SRB) assay, SK-OV-3
Outline: as §1

IGROV-ET = assay: Inhibition of cells growth by colorimetric (SRB) assay, IGROV-ET
Outline: as §1

HT-29 = assay: Inhibition of cells growth by colorimetric (SRB) assay, HT-29
Outline: as §1

## COc1ccc2nc3c(cc2c1)c(-c1ccnc(N)n1)c1ccnc(N)n13 [Compound 19b]
IGROV-1; Homo sapiens, IGROV-1, 48 h, read-out: GI50 IGROV, SRB assay, 48 hours exposure
  GI50: 4.11 µM
IGROV-1; Homo sapiens, IGROV-1, 48 h, read-out: LC50 IGROV, SRB assay, 48 hours exposure
  CC50: 19.4 µM
IGROV-1; SRB assay, 48 hours exposure
  TGI IGROV: 8.93E−06
SK-MEL-28; Homo sapiens, SK-MEL-28, 48 h, read-out: GI50 MEL-28, SRB assay, 48 hours exposure
  GI50: 4.92 µM
SK-MEL-28; Homo sapiens, SK-MEL-28, 48 h, read-out: LC50 MEL-28, SRB assay, 48 hours exposure
  CC50: 28 µM
SK-MEL-28; SRB assay, 48 hours exposure
  TGI MEL-28: 1.65E−05
SK-BR-3; Homo sapiens, SK-BR-3, 48 h, read-out: GI50 SK-BR-3, SRB assay, 48 hours exposure
  GI50: 1.89 µM
SK-BR-3; Homo sapiens, SK-BR-3, 48 h, read-out: LC50 SK-BR-3, SRB assay, 48 hours exposure
  CC50: 28 µM
SK-BR-3; SRB assay, 48 hours exposure
  TGI SK-BR-3: 8.23E−06
PANC-1; Homo sapiens, PANC-1, 48 h, read-out: GI50 PANC-1, SRB assay, 48 hours exposure
  GI50: 8.87 µM
PANC-1; Homo sapiens, PANC-1, 48 h, read-out: LC50 PANC-1, SRB assay, 48 hours exposure
  CC50: 28 µM
PANC-1; SRB assay, 48 hours exposure
  TGI PANC-1: 2.80E−05
LoVo; Homo sapiens, LoVo, 48 h, read-out: GI50 LOVO, SRB assay, 48 hours exposure
  GI50: 3.25 µM
LoVo; Homo sapiens, LoVo, 48 h, read-out: LC50 LOVO, SRB assay, 48 hours exposure
  CC50: 28 µM
LoVo; SRB assay, 48 hours exposure
  TGI LOVO: 1.97E−05
A-549; Homo sapiens, A549, 48 h, read-out: GI50 A-549, SRB assay, 48 hours exposure
  GI50: 0.453 µM
A-549; Homo sapiens, A549, 48 h, read-out: LC50 A-549, SRB assay, 48 hours exposure
  CC50: 28 µM
A-549; SRB assay, 48 hours exposure
  TGI A-549: 2.80E−05
K-562; Homo sapiens, K562, 48 h, read-out: GI50 K-562, SRB assay, 48 hours exposure
  GI50: 8.48 µM
K-562; Homo sapiens, K562, 48 h, read-out: LC50 K-562, SRB assay, 48 hours exposure
  CC50: 28 µM
K-562; SRB assay, 48 hours exposure
  TGI K-562: 1.59E−05
DU-145; Homo sapiens, DU-145, 48 h, read-out: GI50 DU-145, SRB assay, 48 hours exposure
  GI50: 5.79 µM
DU-145; Homo sapiens, DU-145, 48 h, read-out: LC50 DU-145, SRB assay, 48 hours exposure
  CC50: 28 µM
DU-145; SRB assay, 48 hours exposure
  TGI DU-145: 2.39E−05
LNCaP; Homo sapiens, LNCaP, 48 h, read-out: GI50 LN-caP, SRB assay, 48 hours exposure
  GI50: 2.36 µM
LNCaP; Homo sapiens, LNCaP, 48 h, read-out: LC50 LN-caP, SRB assay, 48 hours exposure
  CC50: 27.6 µM
LNCaP; SRB assay, 48 hours exposure
  TGI LN-caP: 8.59E−06
LoVo-Dox; Homo sapiens, 48 h, read-out: GI50 LOVO-DOX, SRB assay, 48 hours exposure
  GI50: 7.42 µM
LoVo-Dox; Homo sapiens, 48 h, read-out: LC50 LOVO-DOX, SRB assay, 48 hours exposure
  CC50: 28 µM
LoVo-Dox; SRB assay, 48 hours exposure
  TGI LOVO-DOX: 2.10E−05
SK-OV-3; Homo sapiens, SK-OV-3, 48 h, read-out: GI50 SKOV-3, SRB assay, 48 hours exposure
  GI50: 8.28 µM
SK-OV-3; Homo sapiens, SK-OV-3, 48 h, read-out: LC50 SKOV-3, SRB assay, 48 hours exposure
  CC50: 28 µM
SK-OV-3; SRB assay, 48 hours exposure
  TGI SKOV-3: 1.89E−05
IGROV-ET; Homo sapiens, 48 h, read-out: GI50 IGROV-ET, SRB assay, 48 hours exposure
  GI50: 3.27 µM
IGROV-ET; Homo sapiens, 48 h, read-out: LC50 IGROV-ET, SRB assay, 48 hours exposure
  CC50: 20.4 µM
IGROV-ET; SRB assay, 48 hours exposure
  TGI IGROV-ET: 8.17E−06
HT-29; Homo sapiens, HT-29, 48 h, read-out: GI50 HT-29, SRB assay, 48 hours exposure
  GI50: 15.2 µM
HT-29; Homo sapiens, HT-29, 48 h, read-out: LC50 HT-29, SRB assay, 48 hours exposure
  CC50: 28 µM
HT-29; SRB assay, 48 hours exposure
  TGI HT-29: 2.80E−05
